According to ChEMBL document CHEMBL3132769, “Fragment growing to retain or alter the selectivity of anchored kinase hinge-binding fragments” (Medchemcomm, 2014):

Assays:
[1] = target: T1, Mitogen-activated protein kinase 13 (Homo sapiens) (UniProt O15264); test: Inhibition of human full length p38 delta expressed in Escherichia coli cell assessed as substrate phosphorylation using fluorescence-labelled peptides as substrate at 9 uM after 90 mins by microfluidic peptide phosphorylation assay
T1 sequence (whole entry): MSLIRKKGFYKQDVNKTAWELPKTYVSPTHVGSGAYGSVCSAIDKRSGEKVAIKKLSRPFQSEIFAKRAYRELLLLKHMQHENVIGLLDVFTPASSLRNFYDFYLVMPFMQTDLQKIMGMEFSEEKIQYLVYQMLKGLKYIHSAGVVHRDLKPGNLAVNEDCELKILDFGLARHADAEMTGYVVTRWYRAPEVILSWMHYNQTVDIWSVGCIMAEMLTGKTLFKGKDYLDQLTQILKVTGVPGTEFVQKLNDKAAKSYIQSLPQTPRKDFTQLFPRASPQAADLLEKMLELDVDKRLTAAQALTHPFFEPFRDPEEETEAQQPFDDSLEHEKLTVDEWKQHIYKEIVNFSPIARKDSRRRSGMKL

[2] = target: T2, Serine/threonine-protein kinase D2 (Homo sapiens) (UniProt Q9BZL6); test: Inhibition of human full length PKD2 expressed in baculovirus assessed as substrate phosphorylation using fluorescence-labelled peptides as substrate at 0.06 uM after 90 mins by microfluidic peptide phosphorylation assay
T2 sequence (whole entry): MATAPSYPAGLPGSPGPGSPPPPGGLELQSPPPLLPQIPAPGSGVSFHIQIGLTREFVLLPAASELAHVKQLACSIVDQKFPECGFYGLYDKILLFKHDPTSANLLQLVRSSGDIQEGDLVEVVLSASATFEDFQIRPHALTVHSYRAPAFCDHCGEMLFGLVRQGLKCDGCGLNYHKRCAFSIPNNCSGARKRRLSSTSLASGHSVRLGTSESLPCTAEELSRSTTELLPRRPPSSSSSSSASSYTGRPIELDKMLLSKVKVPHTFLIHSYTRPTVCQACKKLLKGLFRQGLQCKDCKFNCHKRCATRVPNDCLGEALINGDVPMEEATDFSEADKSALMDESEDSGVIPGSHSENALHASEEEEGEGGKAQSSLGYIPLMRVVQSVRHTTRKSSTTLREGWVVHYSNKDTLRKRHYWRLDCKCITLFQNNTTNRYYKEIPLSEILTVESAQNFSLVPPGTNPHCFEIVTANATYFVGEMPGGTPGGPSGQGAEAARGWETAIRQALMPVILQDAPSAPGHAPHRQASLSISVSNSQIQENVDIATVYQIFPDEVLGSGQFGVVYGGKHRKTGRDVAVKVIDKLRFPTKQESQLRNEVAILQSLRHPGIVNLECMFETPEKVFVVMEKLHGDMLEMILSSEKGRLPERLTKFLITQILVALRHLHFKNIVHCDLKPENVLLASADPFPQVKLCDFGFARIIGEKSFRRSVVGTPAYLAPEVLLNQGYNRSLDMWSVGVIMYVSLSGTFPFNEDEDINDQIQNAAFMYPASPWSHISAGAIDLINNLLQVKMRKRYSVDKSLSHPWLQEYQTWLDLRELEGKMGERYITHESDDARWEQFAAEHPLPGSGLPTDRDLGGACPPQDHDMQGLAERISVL

[3] = target: Dual specificity tyrosine-phosphorylation-regulated kinase 1A (Rattus norvegicus) (UniProt Q63470); test: Inhibition of rat full length DYRK1a expressed in Escherichia coli cell assessed as substrate phosphorylation using fluorescence-labelled peptides as substrate at 0.1 uM after 90 mins by microfluidic peptide phosphorylation assay
[4] = target: Mitogen-activated protein kinase 1 (Homo sapiens) (UniProt P28482); test: Inhibition of human full length ERK2 expressed in Escherichia coli cell assessed as substrate phosphorylation using fluorescence-labelled peptides as substrate at 420 uM after 90 mins by microfluidic peptide phosphorylation assay
Sequence of Mitogen-activated protein kinase 1 (Homo sapiens) (P28482 whole entry, the tested form may be a part): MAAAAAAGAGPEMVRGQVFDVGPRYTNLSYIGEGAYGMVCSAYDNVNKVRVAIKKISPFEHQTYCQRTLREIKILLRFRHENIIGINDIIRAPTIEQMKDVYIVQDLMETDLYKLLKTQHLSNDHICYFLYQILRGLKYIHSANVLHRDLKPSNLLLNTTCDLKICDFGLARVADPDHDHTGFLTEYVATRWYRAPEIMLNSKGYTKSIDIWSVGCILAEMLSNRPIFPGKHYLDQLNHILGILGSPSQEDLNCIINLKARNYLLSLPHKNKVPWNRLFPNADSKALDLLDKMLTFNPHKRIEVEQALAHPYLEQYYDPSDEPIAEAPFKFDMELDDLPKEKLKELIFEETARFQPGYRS

[5] = target: RAC-alpha serine/threonine-protein kinase (Homo sapiens) (UniProt P31749); test: Inhibition of human AKT1 catalytic domain expressed in baculovirus assessed as substrate phosphorylation using fluorescence-labelled peptides as substrate at 70 uM after 90 mins by microfluidic peptide phosphorylation assay
Sequence of RAC-alpha serine/threonine-protein kinase (Homo sapiens) (P31749 whole entry, the tested form may be a part): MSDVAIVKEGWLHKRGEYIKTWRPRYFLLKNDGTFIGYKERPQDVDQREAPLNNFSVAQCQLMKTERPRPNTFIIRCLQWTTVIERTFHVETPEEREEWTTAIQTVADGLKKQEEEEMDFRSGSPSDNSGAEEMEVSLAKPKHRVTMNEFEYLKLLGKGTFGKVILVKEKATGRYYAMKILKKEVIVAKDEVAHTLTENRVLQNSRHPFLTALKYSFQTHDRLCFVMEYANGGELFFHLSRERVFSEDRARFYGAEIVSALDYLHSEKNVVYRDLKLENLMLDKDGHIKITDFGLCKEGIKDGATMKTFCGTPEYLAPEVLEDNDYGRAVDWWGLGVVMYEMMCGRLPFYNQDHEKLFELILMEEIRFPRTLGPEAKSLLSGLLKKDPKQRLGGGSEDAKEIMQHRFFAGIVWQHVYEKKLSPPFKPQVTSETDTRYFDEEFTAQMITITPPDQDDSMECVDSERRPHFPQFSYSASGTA

[6] = target: Epidermal growth factor receptor (Homo sapiens) (UniProt P00533); test: Inhibition of human EGFR catalytic domain expressed in baculovirus assessed as substrate phosphorylation using fluorescence-labelled peptides as substrate at 0.2 uM after 90 mins by microfluidic peptide phosphorylation assay
Sequence of Epidermal growth factor receptor (Homo sapiens) (P00533 whole entry, the tested form may be a part): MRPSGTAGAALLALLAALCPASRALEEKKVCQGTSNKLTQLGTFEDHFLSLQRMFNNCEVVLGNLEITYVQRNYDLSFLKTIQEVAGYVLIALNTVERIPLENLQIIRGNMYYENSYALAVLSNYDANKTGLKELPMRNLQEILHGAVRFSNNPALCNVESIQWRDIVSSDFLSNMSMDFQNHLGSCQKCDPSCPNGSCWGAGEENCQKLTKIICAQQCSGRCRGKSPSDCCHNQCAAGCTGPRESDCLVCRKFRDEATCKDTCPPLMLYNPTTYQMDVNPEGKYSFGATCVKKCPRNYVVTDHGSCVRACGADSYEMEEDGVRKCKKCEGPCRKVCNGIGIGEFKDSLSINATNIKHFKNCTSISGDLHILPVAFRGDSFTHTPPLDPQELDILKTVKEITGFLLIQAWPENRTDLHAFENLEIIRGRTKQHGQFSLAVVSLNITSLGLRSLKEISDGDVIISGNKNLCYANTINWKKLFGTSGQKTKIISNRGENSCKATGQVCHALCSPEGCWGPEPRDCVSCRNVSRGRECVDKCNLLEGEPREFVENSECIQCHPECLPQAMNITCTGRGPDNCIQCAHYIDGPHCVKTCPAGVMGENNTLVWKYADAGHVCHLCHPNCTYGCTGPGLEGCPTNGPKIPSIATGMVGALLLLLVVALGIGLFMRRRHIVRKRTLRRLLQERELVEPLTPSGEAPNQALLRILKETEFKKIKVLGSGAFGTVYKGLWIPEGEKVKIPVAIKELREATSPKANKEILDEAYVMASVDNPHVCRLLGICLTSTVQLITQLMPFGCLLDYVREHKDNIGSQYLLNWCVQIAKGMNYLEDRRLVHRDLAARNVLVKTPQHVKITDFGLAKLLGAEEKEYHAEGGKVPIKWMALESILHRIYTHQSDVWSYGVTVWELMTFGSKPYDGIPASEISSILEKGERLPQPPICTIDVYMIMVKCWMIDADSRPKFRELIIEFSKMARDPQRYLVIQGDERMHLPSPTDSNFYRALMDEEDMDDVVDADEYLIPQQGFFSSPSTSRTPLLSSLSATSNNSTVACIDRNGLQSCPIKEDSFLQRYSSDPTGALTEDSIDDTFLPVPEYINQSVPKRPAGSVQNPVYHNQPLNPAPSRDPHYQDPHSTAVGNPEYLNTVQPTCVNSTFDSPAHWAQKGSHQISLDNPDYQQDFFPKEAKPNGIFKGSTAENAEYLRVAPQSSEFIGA

[7] = target: T3, Serine/threonine-protein kinase BRSK1 (Homo sapiens) (UniProt Q8TDC3); test: Inhibition of human full length BRSK1 expressed in baculovirus assessed as substrate phosphorylation using fluorescence-labelled peptides as substrate at 2 uM after 90 mins by microfluidic peptide phosphorylation assay
T3 sequence (whole entry): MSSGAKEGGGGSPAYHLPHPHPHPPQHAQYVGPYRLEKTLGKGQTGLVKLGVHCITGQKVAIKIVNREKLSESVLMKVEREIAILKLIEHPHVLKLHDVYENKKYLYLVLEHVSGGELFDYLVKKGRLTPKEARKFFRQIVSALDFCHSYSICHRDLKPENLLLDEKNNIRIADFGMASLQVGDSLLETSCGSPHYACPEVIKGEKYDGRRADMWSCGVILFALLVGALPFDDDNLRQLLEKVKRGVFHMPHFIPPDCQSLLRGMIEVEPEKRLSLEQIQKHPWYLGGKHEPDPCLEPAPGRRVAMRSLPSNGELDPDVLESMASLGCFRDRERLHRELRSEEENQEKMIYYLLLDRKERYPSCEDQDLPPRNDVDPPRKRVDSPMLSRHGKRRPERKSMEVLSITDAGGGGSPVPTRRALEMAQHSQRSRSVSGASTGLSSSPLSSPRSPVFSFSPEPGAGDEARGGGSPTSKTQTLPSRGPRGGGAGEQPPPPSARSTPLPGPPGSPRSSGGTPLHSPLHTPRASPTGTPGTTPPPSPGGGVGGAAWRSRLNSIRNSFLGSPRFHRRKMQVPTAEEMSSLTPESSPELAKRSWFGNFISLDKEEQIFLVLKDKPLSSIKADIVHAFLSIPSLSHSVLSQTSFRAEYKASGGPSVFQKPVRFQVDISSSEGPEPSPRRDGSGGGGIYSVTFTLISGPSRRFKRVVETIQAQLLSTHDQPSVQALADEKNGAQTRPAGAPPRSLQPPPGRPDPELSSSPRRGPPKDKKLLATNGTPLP

[8] = target: MAP kinase-activated protein kinase 3 (Homo sapiens) (UniProt Q16644); test: Inhibition of human full length MAPKAPK3 expressed in Escherichia coli cell assessed as substrate phosphorylation using fluorescence-labelled peptides as substrate at 2 uM after 90 mins by microfluidic peptide phosphorylation assay
Sequence of MAP kinase-activated protein kinase 3 (Homo sapiens) (Q16644 whole entry, looked up, the tested form may be a part): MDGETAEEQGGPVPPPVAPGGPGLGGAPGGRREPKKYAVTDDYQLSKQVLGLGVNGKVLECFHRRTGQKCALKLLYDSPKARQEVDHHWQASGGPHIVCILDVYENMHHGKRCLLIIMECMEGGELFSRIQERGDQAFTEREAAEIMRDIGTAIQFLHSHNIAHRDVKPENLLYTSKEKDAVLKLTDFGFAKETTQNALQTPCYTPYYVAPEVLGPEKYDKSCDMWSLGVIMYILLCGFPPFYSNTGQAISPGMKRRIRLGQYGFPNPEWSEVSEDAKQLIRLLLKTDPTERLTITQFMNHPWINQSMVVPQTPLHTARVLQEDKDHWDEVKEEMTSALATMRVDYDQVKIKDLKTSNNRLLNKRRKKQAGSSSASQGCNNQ

[9] = target: Tyrosine-protein kinase ABL2 (Homo sapiens) (UniProt P42684); test: Inhibition of human truncated Arg expressed in baculovirus assessed as substrate phosphorylation using fluorescence-labelled peptides as substrate at 8 uM after 90 mins by microfluidic peptide phosphorylation assay
Sequence of Tyrosine-protein kinase ABL2 (Homo sapiens) (P42684 whole entry, the tested form may be a part): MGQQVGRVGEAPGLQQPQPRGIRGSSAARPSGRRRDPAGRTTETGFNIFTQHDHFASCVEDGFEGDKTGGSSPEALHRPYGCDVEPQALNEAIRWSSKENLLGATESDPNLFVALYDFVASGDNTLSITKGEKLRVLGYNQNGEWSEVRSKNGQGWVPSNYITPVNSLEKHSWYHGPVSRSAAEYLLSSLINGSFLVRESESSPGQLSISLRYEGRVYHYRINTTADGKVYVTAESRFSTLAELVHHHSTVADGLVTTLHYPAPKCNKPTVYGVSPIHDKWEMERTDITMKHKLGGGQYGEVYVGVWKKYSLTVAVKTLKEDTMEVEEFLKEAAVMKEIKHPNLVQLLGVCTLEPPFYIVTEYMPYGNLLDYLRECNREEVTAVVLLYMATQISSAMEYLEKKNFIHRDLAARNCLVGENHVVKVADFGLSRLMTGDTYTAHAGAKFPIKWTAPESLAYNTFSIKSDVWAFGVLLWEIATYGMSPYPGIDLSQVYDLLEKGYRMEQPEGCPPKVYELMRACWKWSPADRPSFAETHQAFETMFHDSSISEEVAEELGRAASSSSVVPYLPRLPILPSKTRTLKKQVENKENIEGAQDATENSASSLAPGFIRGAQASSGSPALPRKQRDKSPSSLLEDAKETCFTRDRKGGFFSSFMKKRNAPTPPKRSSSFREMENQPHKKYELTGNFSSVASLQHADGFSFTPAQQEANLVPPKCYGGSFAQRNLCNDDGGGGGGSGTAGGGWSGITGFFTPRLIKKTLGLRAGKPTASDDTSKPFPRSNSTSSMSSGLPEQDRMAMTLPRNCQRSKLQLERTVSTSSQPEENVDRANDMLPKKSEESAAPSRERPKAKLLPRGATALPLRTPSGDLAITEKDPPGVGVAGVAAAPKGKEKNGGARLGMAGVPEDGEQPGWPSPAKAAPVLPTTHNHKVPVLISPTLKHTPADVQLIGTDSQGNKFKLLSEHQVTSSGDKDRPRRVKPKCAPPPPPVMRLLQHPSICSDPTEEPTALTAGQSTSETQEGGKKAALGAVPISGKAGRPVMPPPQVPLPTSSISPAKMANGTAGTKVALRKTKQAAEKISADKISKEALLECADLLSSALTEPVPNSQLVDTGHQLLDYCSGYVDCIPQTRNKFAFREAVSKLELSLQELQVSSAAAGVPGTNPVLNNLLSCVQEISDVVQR

[10] = target: Receptor-type tyrosine-protein kinase FLT3 (Homo sapiens) (UniProt P36888); test: Inhibition of human FLT3 catalytic domain expressed in baculovirus assessed as substrate phosphorylation using fluorescence-labelled peptides as substrate at 1000 uM after 90 mins by microfluidic peptide phosphorylation assay
Sequence of Receptor-type tyrosine-protein kinase FLT3 (Homo sapiens) (P36888 whole entry, the tested form may be a part): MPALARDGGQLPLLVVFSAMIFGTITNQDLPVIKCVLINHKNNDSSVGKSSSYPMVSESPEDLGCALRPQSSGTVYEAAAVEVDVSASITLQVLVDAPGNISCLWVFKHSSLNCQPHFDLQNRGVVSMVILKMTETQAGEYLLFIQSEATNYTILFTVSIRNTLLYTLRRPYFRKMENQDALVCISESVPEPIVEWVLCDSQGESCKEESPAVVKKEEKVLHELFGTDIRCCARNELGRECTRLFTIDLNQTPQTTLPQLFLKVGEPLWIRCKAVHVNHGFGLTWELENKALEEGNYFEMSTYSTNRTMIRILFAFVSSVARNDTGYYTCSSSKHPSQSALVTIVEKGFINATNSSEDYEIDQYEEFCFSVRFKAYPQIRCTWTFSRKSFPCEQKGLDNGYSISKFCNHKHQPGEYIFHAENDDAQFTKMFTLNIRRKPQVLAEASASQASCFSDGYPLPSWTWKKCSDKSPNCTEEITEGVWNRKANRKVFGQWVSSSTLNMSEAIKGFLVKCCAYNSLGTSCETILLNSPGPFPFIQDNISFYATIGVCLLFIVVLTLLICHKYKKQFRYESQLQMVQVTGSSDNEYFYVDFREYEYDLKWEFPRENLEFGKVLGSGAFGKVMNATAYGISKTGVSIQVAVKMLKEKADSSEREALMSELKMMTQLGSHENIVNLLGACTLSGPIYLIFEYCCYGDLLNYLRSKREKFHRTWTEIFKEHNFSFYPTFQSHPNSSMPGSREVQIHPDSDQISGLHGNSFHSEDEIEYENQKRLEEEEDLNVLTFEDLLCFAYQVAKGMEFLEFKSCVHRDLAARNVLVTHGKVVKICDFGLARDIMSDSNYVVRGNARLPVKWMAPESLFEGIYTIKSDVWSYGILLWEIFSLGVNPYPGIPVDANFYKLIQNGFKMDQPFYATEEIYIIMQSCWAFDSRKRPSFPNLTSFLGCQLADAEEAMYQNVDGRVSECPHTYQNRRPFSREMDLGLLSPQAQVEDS

SMILES: NCC1CN(c2ncnc3[nH]c4cnccc4c23)CCO1 (stereo not given)
- inhibition [1]: 2%

SMILES: NC1(Cc2ccc(Cl)cc2)CCN(c2ncnc3[nH]ccc23)CC1
- inhibition [2]: 1.5%

SMILES: C[C@H](CN(C)C)Oc1nc(Nc2cc3cccc(Cl)c3cn2)cnc1C#N
- inhibition [3]: 3.5%

SMILES: c1nc(N2CCOCC2)c2nc[nH]c2n1
- inhibition [4]: 68%

SMILES: CNCc1ccc(-c2ncnc3[nH]cnc23)cc1
- inhibition [5]: 64.5%

SMILES: Clc1ccc(C2(c3ccc(-c4ncnc5[nH]cnc45)cc3)CCNCC2)cc1
- inhibition [6]: 2.5%

SMILES: NC1CCN(c2ncnc3[nH]ccc23)CC1
- inhibition [7]: 14.5%
- inhibition [8]: 45.5%

SMILES: NCC1CCN(c2ncnc3[nH]ccc23)CC1
- inhibition [9]: 3.5%

SMILES: c1cnc2[nH]ccc2c1
- inhibition [10]: 75.5%
